The nature of data set [1]: in vitro. The settings on record: human; for CC50 at 5 days: uninfected MT-4 cells.
The subject of data set [2] is HIV-1 (IIIB). In words: microbe, parasite or virus in culture. The data set is classed as cell-based.
The nature of data set [3]: physchem. The settings on record: 23 °C, thermodynamic from solid; for solubility thermodynamic at 24 h: FaSSIF; for solubility thermodynamic: fassif.
The mark [4] stands for this setting: Human immunodeficiency virus 1, MT4, 120 h, HIV-1 (IIIB) replication in MT-4 cells, 5 days incubation, Cell Titer Glo, read-out: MT4 EC50.
[5] abbreviates: Human immunodeficiency virus 1, IIIB, MT4, 120 h, read-out: MT4 EC50 (nM).

Values after ≈ are worked out from the molar mass of the structure shown. Read-outs that look alike come from different tables or passages of the source.

As a reminder, the EC50 is the concentration giving half of the maximal effect. The term thermodynamic solubility denotes the concentration in solution at equilibrium with solid. As for `CC1=NO[C@@]2(CC[C@H](C)N3C[C@H]2n2cc(C(=O)NCc4ccc(F)cc4F)c(=O)c(OCOC(=O)OCC4(COP(=O)(O)O)CCC4)c2C3=O)C1` [Compound 47, (((3′S,5S,7′R)-10′-((2,4-difluorobenzyl)carbamoyl)-3,3′-dimethyl-1′,11′-dioxo-1′,4′,5′,11′-tetrahydro-3′H,4H,7′H-spiro[isoxazole-5,6′-[2,7]methanopyrido[1,2-a][1,4]diazonin]-12′-yl)oxy)methyl ((1-((phosphonooxy)methyl)cyclobutyl)methyl) carbonate], the CC50 at 5 days in data set [1] is 11.2 µM. Moreover, the concentration giving a half-maximal response (EC50) in data set [2] (setting [4]) was 2.22 nM. Moreover, in data set [3], the thermodynamic solubility at 24 h amounted to 4.86 mg/mL (≈ 6.57 mM).

Consider `CC1=NO[C@@]2(CC[C@H](C)N3C[C@H]2n2cc(C(=O)NCc4ccc(F)cc4F)c(=O)c(OCOC(=O)N4CCOC[C@@H]4COP(=O)(O)O)c2C3=O)C1` [Compound 63, (((3′S,5S,7′R)-10′-((2,4-difluorobenzyl)carbamoyl)-3,3′-dimethyl-1′,11′-dioxo-1′,4′,5′,11′-tetrahydro-3′H,4H,7′H-spiro[isoxazole-5,6′-[2,7]methanopyrido[1,2-a][1,4]diazonin]-12′-yl)oxy)methyl (3R)-3-((phosphonooxy)methyl)morpholine-4-carboxylate], for which, in data set [1], the CC50 is no less than 50 µM. Moreover, the EC50 in data set [2] (setting [5]) came to 18.7 nM. In data set [3], this compound had a solubility (thermodynamic) of 5 mg/mL (≈ 6.76 mM).

In the case of `COC(=O)CN(Cc1cccnc1N(C)C(=O)Oc1c2n(cc(C(=O)NCc3ccc(F)cc3F)c1=O)[C@@H]1CN(C2=O)[C@@H](C)CC[C@]12CC(C)=NO2)C(=O)OCOP(=O)(O)O` [Compound 34, methyl N-((2-(((((3′S,5S,7′R)-10′-((2,4-difluorobenzyl)carbamoyl)-3,3′-dimethyl-1′,11′-dioxo-1′,4′,5′,11′-tetrahydro-3′H,4H,7′H-spiro[isoxazole-5,6′-[2,7]methanopyrido[1,2-a][1,4]diazonin]-12′-yl)oxy)carbonyl)(methyl)amino)pyridin-3-yl)methyl)-N-(((phosphonooxy)methoxy)carbonyl)glycinate], the CC50 in data set [1] worked out at 12.8 µM. Further, the EC50 in data set [2] (setting [5]) was determined as 1.4 nM. Moreover, in data set [3], the thermodynamic solubility was found to be 4.92 mg/mL (≈ 5.62 mM).

The compound `CCCCCCCCCCCCCC(=O)Nc1ccc(CC(=O)Oc2c3n(cc(C(=O)NCc4ccc(F)cc4F)c2=O)[C@@H]2CN(C3=O)[C@@H](C)CC[C@]23CC(C)=NO3)cc1` [Compound 94, (3′S,5S,7′R)-10′-((2,4-difluorobenzyl)carbamoyl)-3,3′-dimethyl-1′,11′-dioxo-1′,4′,5′,11′-tetrahydro-3′H,4H,7′H-spiro[isoxazole-5,6′-[2,7]methanopyrido[1,2-a][1,4]diazonin]-12′-yl 2-(4-tetradecanamidophenyl)acetate] yielded a CC50 at 5 days in data set [1] of no less than 50 µM. Further, in data set [2] (setting [4]), the EC50 turned out to be 3.2 nM. Further, the solubility (thermodynamic) at 24 h in data set [3] amounted to 0.019 mg/mL (≈ 0.0229 mM).

With `CCCCCCCCCCCCCC(=O)Oc1ccc(C(=O)Oc2c3n(cc(C(=O)NCc4ccc(F)cc4F)c2=O)[C@@H]2CN(C3=O)[C@@H](C)CC[C@]23CC(C)=NO3)cc1` [Compound 100, (3′S,5S,7′R)-10′-((2,4-difluorobenzyl)carbamoyl)-3,3′-dimethyl-1′,11′-dioxo-1′,4′,5′,11′-tetrahydro-3′H,4H,7′H-spiro[isoxazole-5,6′-[2,7]methanopyrido[1,2-a][1,4]diazonin]-12′-yl 4-(tetradecanoyloxy)benzoate], in data set [1], the CC50 at 5 days amounted to 12.8 µM. The EC50 in data set [2] (setting [4]) turned out to be 2.94 nM. Moreover, the thermodynamic solubility at 24 h in data set [3] was 0.0645 mg/mL (≈ 0.079 mM).

For the origin of these results see US20250127801A1, “BRIDGED TRICYCLIC CARBAMOYLPYRIDONE COMPOUNDS AND USES THEREOF” (priority 2023, published 2025).
